Results on 2 compounds are retold here after patent publication US20140271734A1, “BILE ACID RECYCLING INHIBITORS FOR TREATMENT OF BARRETT'S ESOPHAGUS AND GASTROESOPHAGEAL REFLUX DISEASE” (LUMENA PHARMACEUTICALS, INC., priority 2013, published 2014).

For orientation: Cmax means the highest concentration seen after dosing. In general, Vss refers to the apparent volume that relates the amount in the body to the concentration in plasma or blood.

Data set [1] has as its system 3-Hydroxy-3-Methylglutaryl Coenzyme A (HMG-CoA) Reductase. In words: HMG-CoA reductase activity in liver microsomes of treated dogs. It counts as in vivo, beagle dogs. The note with it: 14 Days; for HMG-CoA Reductase: n=8. The protocol:
Healthy female and male beagle dogs in the age range of 8 to 10 months were used. The animals were acclimated for at least four weeks before dose administration. […] Animals in the control group (group 1) were given the same number of empty capsules as the animals of group 5 to treat all dose groups the same.
At the end of the study, animals were anesthetized, their livers removed and flash frozen and stored at −80 C. Homogenates of three gram liver tissue samples were prepared in 25 ml homogenization buffer [0.1 M potassium phosphate buffer, pH 7.2, containing 0.1 M sucrose, 50 mM KCl, 50 mM NaF, 5 mM ethylene glycol-bis((3-aminoethyl ether)-N,N,N′,N′-tetraacetic acid (EGTA), 1 mM EDTA, 3 mM dithiothreitol (DTT), and 1 mM phenylmethylsulfonyl fluoride (PMSF)]. A microsomal fraction was prepared by centrifugation at 10,000×g for ten minutes. The supernatant was subjected to centrifugation at 105,000×g for two hours. The microsomal fraction was resuspended in a 0.1 M Na tetrapyrophosphate buffer (pH 10), with 50 mM NaF, and 1 mM EDTA, and subjected to centrifugation for one hour at 105,000×g. The microsomal fraction was resuspended in the homogenization buffer, and assayed for protein content by Coomassie Protein Plus Assay reagent.
Microsomes (200 μg) were preincubated for 15 minutes at 37° C. in a total volume of […] buffer containing 0.1 M potassium phosphate (pH 7.4), 10 mM imidazole, 5 mM DTT, 10 mM EDTA, 3 mM NADP, 12 mM glucose-6-phosphate and 1 unit glucose-6-phosphate dehydrogenase (catalog number G4134, Sigma, St. Louis). The HMG-CoA reductase assay was initiated by the addition of 9 nmoles (0.5 μCi) DL-[3^14C] HMG-CoA (final assay volume was […]. The mixture was incubated for 60 minutes at 37° C. after which the assay was stopped with 25 μl of 6 N HCl. [^3H]Mevalonic acid (0.1 μCi), used as an internal standard to correct for incomplete recovery, was added to the reaction mixture along with 3 mg of unlabeled mevalonic acid lactone. The mixture was then incubated for an additional 30 minutes at 37° C. The [^14C]mevalonate that was formed and converted into mevalonic acid lactone during both incubations was isolated by thin layer chromatography. Each lane was scraped into 3 ml of InstaGel XF (Packard, Meriden, Conn.) and read on a Beckman Scintillator Counter. Reagents unless noted otherwise were obtained from Sigma, St. Louis, Mo. Isotopes were obtained from NEN Life Science Products, Boston, Mass.
(Liver microsomes are vesicles of endoplasmic reticulum, rich in cytochrome P450 enzymes.)

Data set [2] can be described thus: Pharmacokinetics of LUM002 following single administration to rats. The note with it: for F: PO 20 mg/kg free acid, topmost estimate assuming 1 ng/mL over 24 h and dose-linear exposure. It counts as in vivo, Sprague Dawley Rat. As for the experimental part: To each rat either a single oral (PO; 20 mg/kg free acid) or a single intravenous (IV; 2 mg/kg free acid) dose of [^14Cl]LUM002 was administered. For PO and IV administration, the test substance was prepared with the adequate amount of water to reach a solution with a concentration of approximately 4 mg/g (PO) and 1 mg/g (IV). Oral administration was a gavage using a stomach tube and IV administration was a bolus injection into the tail vein. Exact doses administered to animals were calculated according to syringe weights.
The doses of radioactivity actually administered were determined by using standards prior to and after treatment of the animals. Blood—Animals were anaesthetized (Isoflurane) for blood sampling (3 animals/time point) and then euthanized by […]. Blood samples (maximal volume from each animal approx. 8 mL) were withdrawn from the abdominal aorta into containers containing a small amount of lithium heparin. and samples were centrifuged for 2 minutes at 1540 g. Aliquots (100 μL) of blood were used for hematocrit determination. Animals for the control groups (male and/or female) were used as predose animals for sampling of untreated biological samples (blood and plasma or liver, myocardium, kidneys only from male control animals). Plasma—To obtain plasma, blood samples were centrifuged for 10 minutes and stored cooled before final division.
Bioanalytical analysis—50 μL of plasma samples were placed into an 1.5 mL reaction tube. 5 μL methanol was added to each sample. For protein precipitation, 100 μL of the internal standard working solution (100 ng/mL of benzyl-13C6-LUM002 in acetonitrile) and 50 μL acetonitrile were added. In case of double blank samples, pure acetonitrile was added. Tubes were sealed and mixed thoroughly for 10 seconds. The tubes were centrifuged for 5 minutes at ≧3000 g. 50 μL of the clear supernatant was transferred into an autoinjector vial and were diluted with 50 μL deionized water. Analysis of samples was performed by using LC-MSMS (injection volume 50-75 μL) with a lower limit of quantification in the assay of 1 ng/mL for LUM002.

Where [3] appears, read: M, IV bolus injection 2 mg/kg free acid.

Marks after values point to notes of the source that are not given here.

In the case of `CCCCC1(CCCC)CS(=O)(=O)c2ccc(N(C)C)cc2[C@@H](c2ccc(OCc3ccc(C[N+]45CCN(CC4)CC5)cc3)cc2)[C@H]1O` [LUM001], the “HMG-CoA Reductase, % change from vehicle group” value in data set [1] (1 mg/kg/day) is given as “(+128) %”; in data set [1] (4 mg/kg/day), “(+242) %”; in data set [1] (12 mg/kg/day) it was “(+449) %”; in data set [1] (30 mg/kg/day) it was “(+656) %”. For the same compound, the “HMG-CoA Reductase” value in data set [1] (1 mg/kg/day) came to 164 ± 20 pmol/mg/min; in data set [1] (4 mg/kg/day) it was 246 ± 30 pmol/mg/min; in data set [1] (12 mg/kg/day), 395 ± 46 pmol/mg/min; in data set [1] (30 mg/kg/day), 544 ± 33 pmol/mg/min.

On to `CCCC[C@]1(CC)CS(=O)(=O)c2ccc(N(C)C)cc2[C@@H](c2cccc(NC(=O)N[C@@H]3O[C@H](COS(=O)(=O)[O-])[C@@H](O)[C@H](OCc4ccccc4)[C@H]3O)c2)[C@H]1O.CCO.O.[K+]` [LUM002, potassium((2R,3R,4S,5R,6R)-4-benzyloxy-6-{3-[3-((3S,4R,5R)-3-butyl-7-dimethylamino-3-ethyl-4-hydroxy-1,1-dioxo-2,3,4,5-tetrahydro-1H-benzo[b]thiepin-5-yl)-phenyl]-ureido}-3,5-dihydroxy-tetrahydro-pyran-2-ylmethyl)sulphate ethanolate, hydrate], for which, in data set [2] (F), the F is recorded as <1.3^e %. In data set [2] (setting [3]), this compound yielded a Cmax of 1036 ng/mL, a Vss of 3.890 L/kg and a t1/2 of 10.7 h. Besides, the Tmax in data set [2] (M, IV bolus injection 2 mg/kg free acid, extrapolated to t = 0) is 0^c h. Moreover, in data set [2] (M), the F was <1.3^e %. The “LUM002 dose systemically absorbed” value in data set [2] (rats, single PO 20 mg/kg vs IV 2 mg/kg free acid) is “Less than 2%”.
